Experimental data reported in US20060270591A1, “Androgen receptor coregulators” (priority 2002, published 2006).

What was measured:
AR [1] = assay: AR reporter gene assay with gelsolin (Example 5); assay type: cell-based, human; details: 100 nM HF; normal 10% FCS medium; no gelsolin
Text: 468. A C-terminal fragment of gelsolin (aa 281-731) was isolated from pACT2 encoding gelsolin, and inserted into pSG5-Gal4 DNA-binding domain (DBD) (constructed by Dr. R. Nakao). AR fragment (aa 36-918) was inserted into pCMX-VP16 (a gift from Dr. D. Chen). For gelsolin expression vector, a full-length cDNA fragment of gelsolin from LKCG, a gift from Dr. D. Kwiatkowski (Northwestern University, Evanston, Ill.), was inserted into pSG5. Dr. M. L. Lu (Harvard Medical School, Boston, Mass.) provided the p (ARE) 4-luciferase (LUC) plasmid. Dr. A. Mizokami (University of Kanazawa, Kanazawa, Japan) provided the pGL3-PSA6.0LUC plasmid. The expression plasmids of AR peptides were constructed by inserting the PCR amplified cDNA fragment of AR DBD into pFlag-CMV (Sigma) and the fragments of AR LBD into pCDNA-flag plasmid. Transfection protocol and reporter gene assay were described in previous report (Ting et al. Proc Natl Acad Sci USA 99, 661-666 (2002)).

wtAR and gelsolin = wtAR and gelsolin (Homo sapiens, UniProt P10275); details: COS-7 cells; T 10 nM; HF 1 μM
mtARt877s and gelsolin = mtARt877s and gelsolin (Homo sapiens, UniProt P10275, T878S); details: 10 μM HF, 100 nM DHT, 1 μM E2, 1 μM P; compared to EtOH
Text: Y190 yeast cells were transformed with pAS2-mtARt877s (aa 595-918) and pATC2-gelsolin (aa 281-731).

AR [2] = assay: AR transactivation reporter assay (CAT/LUC) with ARA267 (Example 4); assay type: cell-based, human
Experimental: (§1) 444. Human prostate cancer cell line PC-3 and DU145, lung cancer cell line H1299, and hepatoma cell line HepG2 were grown in DMEM-10% FCS. For transfection the cells were plated in 60-mm dishes and experiments performed by modified calcium phosphate technique as previously described (Yeh et al. Proc. Natl. Acad. Sci. U.S.A. (1996) 93, 5517-5521). After incubation for 24 h, the cells were treated with steroid hormones for another 24 h, then harvested for the chloramphenicol acetyltransferase (CAT) assay. Mouse mammary tumor virus-(MMTV)-CAT reporter gene was used to measure AR transcription activity, and a β-Galactosidase expression gene (pCMV-O-gal) was incorporated into the experiments as an internal control (Yeh et al. Proc. Natl. Acad. Sci. U.S.A. (1996) 93, 5517-5521). CAT activity was visualized by a PhosphorImager (Molecular Dynamics) and quantitated by IMAGEQUANT software (molecular Dynamics). For Luciferase (LUC) assay, pG5-LUC, pMMTV-LUC or estrogen response element (ERE)-LUC plasmid was used as the reporter gene and SV40-PRL (promega) was used as an internal control. Dual-luciferase Reporter 1000 Assay System (promega) was employed to measure the luciferase activity.

GR = molecular target: T1, GR (Homo sapiens, UniProt P04150); assay: GR transactivation luciferase assay with ARA267; assay type: cell-based; set-up: expressed in transfected cells; host or cells: DU145, PC-3, HepG2; details: HepG2 cells
T1 sequence (P04150 1-777): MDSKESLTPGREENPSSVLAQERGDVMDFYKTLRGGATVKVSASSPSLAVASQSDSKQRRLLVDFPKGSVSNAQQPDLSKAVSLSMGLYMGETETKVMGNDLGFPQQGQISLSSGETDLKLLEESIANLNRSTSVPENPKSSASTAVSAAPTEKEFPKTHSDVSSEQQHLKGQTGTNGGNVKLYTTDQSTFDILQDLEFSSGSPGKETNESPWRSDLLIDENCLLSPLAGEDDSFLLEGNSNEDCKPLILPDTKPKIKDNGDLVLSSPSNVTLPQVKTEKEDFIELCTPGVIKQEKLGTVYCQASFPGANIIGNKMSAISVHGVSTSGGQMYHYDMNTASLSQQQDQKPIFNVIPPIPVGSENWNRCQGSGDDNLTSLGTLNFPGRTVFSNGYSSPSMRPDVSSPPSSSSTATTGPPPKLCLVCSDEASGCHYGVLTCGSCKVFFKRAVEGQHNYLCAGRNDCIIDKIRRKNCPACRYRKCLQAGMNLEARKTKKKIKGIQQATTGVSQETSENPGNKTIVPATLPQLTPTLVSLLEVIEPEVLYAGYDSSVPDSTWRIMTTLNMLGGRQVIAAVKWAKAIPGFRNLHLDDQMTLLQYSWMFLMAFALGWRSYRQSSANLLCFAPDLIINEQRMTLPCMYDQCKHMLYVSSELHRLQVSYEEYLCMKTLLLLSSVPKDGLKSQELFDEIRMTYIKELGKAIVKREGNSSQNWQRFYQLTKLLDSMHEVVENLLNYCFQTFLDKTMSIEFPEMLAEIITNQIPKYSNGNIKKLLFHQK
Experimental: (§2) 31. […] The luciferase activity of each receptor without ARA267 and ligands was set as one fold. All values represent the mean SD of three independent experiments.
as §1

ER = molecular target: T2, ER (Homo sapiens, UniProt P03372); assay: ER transactivation luciferase assay with ARA267; assay type: cell-based; set-up: expressed in transfected cells; host or cells: DU145, HepG2, PC3; details: HepG2 cells
T2 sequence (P03372 1-595): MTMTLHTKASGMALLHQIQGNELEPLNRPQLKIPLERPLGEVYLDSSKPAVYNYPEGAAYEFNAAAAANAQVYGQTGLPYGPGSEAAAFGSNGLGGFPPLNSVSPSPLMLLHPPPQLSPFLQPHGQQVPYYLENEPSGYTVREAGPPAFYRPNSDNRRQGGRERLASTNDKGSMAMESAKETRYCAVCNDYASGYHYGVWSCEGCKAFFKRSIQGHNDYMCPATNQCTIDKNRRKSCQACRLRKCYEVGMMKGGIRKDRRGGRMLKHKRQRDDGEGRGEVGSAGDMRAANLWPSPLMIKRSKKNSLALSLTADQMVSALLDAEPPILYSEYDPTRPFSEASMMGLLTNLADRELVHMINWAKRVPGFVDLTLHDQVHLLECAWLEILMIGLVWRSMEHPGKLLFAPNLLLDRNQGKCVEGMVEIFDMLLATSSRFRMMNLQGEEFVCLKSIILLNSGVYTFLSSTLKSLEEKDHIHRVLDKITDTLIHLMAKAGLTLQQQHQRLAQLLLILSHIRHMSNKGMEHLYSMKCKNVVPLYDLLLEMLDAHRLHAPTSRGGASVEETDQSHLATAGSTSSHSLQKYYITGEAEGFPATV
Experimental: as §2, §1

PSA = assay: Western blot of PSA in LNCaP cells transfected with ARA267; assay type: cell-based, human; details: 10 nM DHT
Experimental: 447. LNCaP cells were transfected with pSG5ARA267 and pSG5 vector by Superfect (Qiagen) respectively. […] The cells were harvested and lysed following the protocol from Santa Cruz Biotechnology. In each sample, 50 μg whole-cell lysis proteins were separated on 10% SDS-polyacrylamide gel. After transfering, the membrane was blotted with polyclonal AR antibody (NH27), PSA antibody (Dako Corporation), and β-actin antibody (Santa Cruz Biotechnology). The bands were developed with an alkaline phosphatase detection kit (Bio-Rad).

| interaction between wtAR and gelsolin (wtAR and gelsolin) | interaction between mtARt877s and gelsolin (β-gal activity) (mtARt877s and gelsolin) | effect on the transactivation of GR (GR) | effect on the transactivation of ER (ER) | Compound | inhibition of AR transactivation (AR [1]) [%] | effect on AR transactivation (AR [2]; 10 nM E2) | effect on DHT-mediated AR transactivation (AR [2]; PC-3 cells, MMTV-CAT) | effect on DHT-induced PSA protein expression (PSA) |
| --- | --- | --- | --- | --- | --- | --- | --- | --- |
| induced significant interaction | promoted significant interaction | – | – | CC(C)(O)C(=O)Nc1ccc([N+](=O)[O-])c(C(F)(F)F)c1 [HF, hydroxyflutamide] | 80 | – | – | – |
| – | – | marginal effect | marginal effect | ARA267: AR coregulator of 2427 amino acids containing a SET domain, calculated molecular weight 267 kD | – | marginal effects | enhance DHT-mediated AR transactivation in a dose-dependent manner | enhance DHT-induced PSA protein expression |
